Reference: US20100222269A1, “IMPROVED DERIVATIVES OF AMYLIN” (priority 2007, published 2010)
Read-outs that look alike come from different tables or passages of the source. Starred links: 1 amine or outer side, 2 acyl side, 3 side chain; linkers in the order of their positions; H or OH if unused. Positions of bridges follow the written chain, without caps; N, C: chain ends. Residues, ends and D or L forms follow the SMILES beside them. Groups on a side chain read outwards from the residue. *: point of attachment. X1 = O=C(CCCCCCCCCCCCCCCc1nnn[nH]1)NS(=O)(=O)CCCC(=O)*; C20 diacid = O=C(O)CCCCCCCCCCCCCCCCCCC(=O)*; C18 diacid = O=C(O)CCCCCCCCCCCCCCCCC(=O)*; γGlu = O=C(O)[C@H](CCC(=O)[*:2])N[*:1]; AEEA = NCCOCCOCC(=O)O

Biological target: T1, Amylin 3(a) receptor (human calcitonin receptor (CTa) with RAMP-3) (Homo sapiens, UniProt O60896+P30988)
T1 construct: expressed in transfected cells; host or cells: BHK570 (baby hamster kidney) cells, stably transfected, with CRE-luciferase reporter
Assay: Amylin luciferase assay (CRE-luciferase reporter in BHK Amylin 3(a)//CRE-luc cells)
Format: cell-based
Procedure, shortened: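 BHK570 cells stably expressing human calcitonin receptor (CTa), RAMP-3 and a CRE-luciferase reporter, about 20.000 cells/well, were exposed to standard or sample for 4 h at 37° C in phenol-red-free DMEM with 10% FBS and 10 mM Hepes pH 7,4. Luminescence was read after 30 min with LucLite at room temperature.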

[1] = BHK570 cells with human calcitonin receptor (CTa), RAMP-3 and CRE-luciferase reporter, 4 hours incubation, read-out: Potency luciferase assay

T1 sequence (O60896 24-148): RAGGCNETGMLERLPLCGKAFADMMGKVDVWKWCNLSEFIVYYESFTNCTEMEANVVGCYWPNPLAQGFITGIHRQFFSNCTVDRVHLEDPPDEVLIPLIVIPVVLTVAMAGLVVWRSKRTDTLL
T1 sequence (P30988 25-474): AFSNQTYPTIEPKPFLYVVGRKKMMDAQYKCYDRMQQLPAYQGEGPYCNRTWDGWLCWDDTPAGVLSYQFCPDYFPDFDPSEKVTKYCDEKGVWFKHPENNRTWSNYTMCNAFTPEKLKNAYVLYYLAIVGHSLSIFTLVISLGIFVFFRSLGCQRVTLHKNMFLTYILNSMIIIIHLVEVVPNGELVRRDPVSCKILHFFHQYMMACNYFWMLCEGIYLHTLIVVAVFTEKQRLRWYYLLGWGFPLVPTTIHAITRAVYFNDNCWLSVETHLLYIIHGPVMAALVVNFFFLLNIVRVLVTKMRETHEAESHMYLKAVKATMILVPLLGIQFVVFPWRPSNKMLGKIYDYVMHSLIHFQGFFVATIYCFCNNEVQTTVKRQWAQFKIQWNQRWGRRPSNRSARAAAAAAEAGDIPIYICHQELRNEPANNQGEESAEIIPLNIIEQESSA

| SMILES | EC50 [1] | EC50 |
| --- | --- | --- |
| CC[C@H](C)[C@H](NC(=O)[C@H](CCCCNC(=O)CC[C@H](NC(=O)CCCCCCCCCCCCCCCCC(=O)O)C(=O)O)NC(=O)CNC(=O)[C@H](Cc1ccccc1)NC(=O)[C@H](CC(N)=O)NC(=O)[C@H](CC(N)=O)NC(=O)[C@H](CO)NC(=O)[C@H](CO)NC(=O)[C@H](Cc1c[nH]cn1)NC(=O)[C@@H](NC(=O)[C@H](CC(C)C)NC(=O)[C@H](Cc1ccccc1)NC(=O)[C@H](CC(N)=O)NC(=O)[C@H](C)NC(=O)[C@H](CC(C)C)NC(=O)[C@H](CCCNC(=N)N)NC(=O)[C@H](CCC(N)=O)NC(=O)[C@@H](NC(=O)[C@H](C)NC(=O)[C@@H]1CSSC[C@H](NC(=O)[C@@H](N)CCCCN)C(=O)N[C@@H](CC(N)=O)C(=O)N[C@@H]([C@@H](C)O)C(=O)N[C@@H](C)C(=O)N[C@@H]([C@@H](C)O)C(=O)N1)[C@@H](C)O)C(C)C)C(=O)N[C@@H](CC(C)C)C(=O)N1CCC[C@H]1C(=O)N1CCC[C@H]1C(=O)N[C@H](C(=O)N[C@@H](CC(N)=O)C(=O)N[C@H](C(=O)NCC(=O)N[C@@H](CO)C(=O)N[C@@H](CC(N)=O)C(=O)N[C@H](C(=O)N[C@@H](Cc1ccc(O)cc1)C(N)=O)[C@@H](C)O)C(C)C)[C@@H](C)O [Example 27, N-epsilon25-[(S)-4-carboxy-4-(17-carboxyheptadecanoylamino)butyryl]-[Lys25]-pramlintide (1-37)] (H-KCNTATCATQRLANFLVHSSNNFGK([γGlu-C18 diacid])ILPPTNVGSNTY-NH2; disulfide 2-7; N-terminus assumed) | 0.09 nM | – |
| CC(C)C[C@H](NC(=O)[C@H](CC(N)=O)NC(=O)[C@H](CCC(N)=O)NC(=O)[C@H](CO)NC(=O)[C@H](CO)NC(=O)[C@H](CCCNC(=N)N)NC(=O)[C@@H](NC(=O)[C@H](CC(C)C)NC(=O)[C@H](Cc1ccccc1)NC(=O)[C@H](CC(N)=O)NC(=O)[C@H](C)NC(=O)[C@H](CC(C)C)NC(=O)[C@H](CCCNC(=N)N)NC(=O)[C@H](CCC(N)=O)NC(=O)[C@@H](NC(=O)[C@H](C)NC(=O)[C@@H]1CSSC[C@H](NC(=O)[C@H](CCC(=O)O)NC(=O)[C@H](CCC(=O)O)NC(=O)[C@H](CCC(=O)O)NC(=O)[C@H](CCC(=O)O)NC(=O)CCCCCCCCCCCCCCCCCCC(=O)O)C(=O)N[C@@H](CCC(N)=O)C(=O)N[C@@H]([C@@H](C)O)C(=O)N[C@@H](C)C(=O)N[C@@H]([C@@H](C)O)C(=O)N1)[C@@H](C)O)C(C)C)C(=O)NCC(=O)N1CCC[C@H]1C(=O)N[C@H](C(=O)N[C@@H](CC(C)C)C(=O)N1CCC[C@H]1C(=O)N1CCC[C@H]1C(=O)N[C@H](C(=O)N[C@@H](CC(N)=O)C(=O)N[C@H](C(=O)NCC(=O)N[C@@H](CO)C(=O)N[C@@H](CC(N)=O)C(=O)N[C@H](C(=O)N[C@@H](Cc1ccc(O)cc1)C(N)=O)[C@@H](C)O)C(C)C)[C@@H](C)O)C(C)C [Example 37, N-alpha-(19-carboxynonadecanoyl)-Glu-Glu-Glu-[Glu1,Gln3,Arg18,Gln21,Leu23,Val26]-pramlintide (1-37)] ({C20 diacid}-EEEECQTATCATQRLANFLVRSSQNLGPVLPPTNVGSNTY-NH2; disulfide 5-10) | 2 nM | – |
| CC[C@H](C)[C@H](NC(=O)[C@@H]1CCCN1C(=O)CNC(=O)[C@H](Cc1ccccc1)NC(=O)[C@H](CC(N)=O)NC(=O)[C@H](CC(N)=O)NC(=O)[C@H](CO)NC(=O)[C@H](CO)NC(=O)[C@H](Cc1c[nH]cn1)NC(=O)[C@@H](NC(=O)[C@H](CC(C)C)NC(=O)[C@H](Cc1ccccc1)NC(=O)[C@H](CC(N)=O)NC(=O)[C@H](C)NC(=O)[C@H](CC(C)C)NC(=O)[C@H](CCCNC(=N)N)NC(=O)[C@H](CCC(N)=O)NC(=O)[C@@H](NC(=O)[C@H](C)NC(=O)[C@@H]1CSSC[C@H](NC(=O)[C@H](CCC(=O)O)NC(=O)[C@H](CCCNC(=N)N)NC(=O)[C@H](CCC(=O)O)NC(=O)[C@H](CCC(=O)O)NC(=O)CCCS(=O)(=O)NC(=O)CCCCCCCCCCCCCCCc2nnn[nH]2)C(=O)N[C@@H](CC(N)=O)C(=O)N[C@@H]([C@@H](C)O)C(=O)N[C@@H](C)C(=O)N[C@@H]([C@@H](C)O)C(=O)N1)[C@@H](C)O)C(C)C)C(=O)N[C@@H](CC(C)C)C(=O)N1CCC[C@H]1C(=O)N1CCC[C@H]1C(=O)N[C@H](C(=O)N[C@@H](CC(N)=O)C(=O)N[C@H](C(=O)NCC(=O)N[C@@H](CO)C(=O)N[C@@H](CC(N)=O)C(=O)N[C@H](C(=O)N[C@@H](Cc1ccc(O)cc1)C(N)=O)[C@@H](C)O)C(C)C)[C@@H](C)O [Example 31, N-alpha-[4-(16-1H-tetrazol-5-yl-hexadecanoylsulfamoyl)-butyryl]-Glu-Glu-Arg-[Glu1]pramlintide (1-37)] (X1-EERECNTATCATQRLANFLVHSSNNFGPILPPTNVGSNTY-NH2; disulfide 5-10) | 0.09 nM | – |
| CC[C@H](C)[C@H](NC(=O)[C@@H]1CCCN1C(=O)CNC(=O)[C@H](Cc1ccccc1)NC(=O)[C@H](CC(N)=O)NC(=O)[C@H](CC(N)=O)NC(=O)[C@H](CO)NC(=O)[C@H](CO)NC(=O)[C@H](Cc1c[nH]cn1)NC(=O)[C@@H](NC(=O)[C@H](CC(C)C)NC(=O)[C@H](Cc1ccccc1)NC(=O)[C@H](CC(N)=O)NC(=O)[C@H](C)NC(=O)[C@H](CC(C)C)NC(=O)[C@H](CCCNC(=N)N)NC(=O)[C@H](CCC(N)=O)NC(=O)[C@@H](NC(=O)[C@H](C)NC(=O)[C@@H]1CSSC[C@H](NC(=O)[C@@H](N)CCCCN)C(=O)N[C@@H](CC(N)=O)C(=O)N[C@@H]([C@@H](C)O)C(=O)N[C@@H](C)C(=O)N[C@@H]([C@@H](C)O)C(=O)N1)[C@@H](C)O)C(C)C)C(=O)N[C@@H](CC(C)C)C(=O)N1CCC[C@H]1C(=O)N[C@@H](CCCCNC(=O)COCCOCCNC(=O)COCCOCCNC(=O)CCCCCCCCCCCCCCCCCCC(=O)O)C(=O)N[C@H](C(=O)N[C@@H](CC(N)=O)C(=O)N[C@H](C(=O)NCC(=O)N[C@@H](CO)C(=O)N[C@@H](CC(N)=O)C(=O)N[C@H](C(=O)N[C@@H](Cc1ccc(O)cc1)C(N)=O)[C@@H](C)O)C(C)C)[C@@H](C)O [Example 6, N-epsilon29-(2-{2-[2-(2-{2-[2-(19-carboxynonadecanoylamino)ethoxy]ethoxy}acetylamino)ethoxy]ethoxy}acetyl)-[Lys29]-pramlintide (1-37)] (H-KCNTATCATQRLANFLVHSSNNFGPILPK([AEEA-AEEA-C20 diacid])TNVGSNTY-NH2; disulfide 2-7; N-terminus and C-terminus assumed) | 0.2 nM | – |
| CC[C@H](C)[C@H](NC(=O)[C@@H]1CCCN1C(=O)CNC(=O)[C@H](Cc1ccccc1)NC(=O)[C@H](CC(N)=O)NC(=O)[C@H](CC(N)=O)NC(=O)[C@H](CO)NC(=O)[C@H](CO)NC(=O)[C@H](Cc1c[nH]cn1)NC(=O)[C@@H](NC(=O)[C@H](CC(C)C)NC(=O)[C@H](Cc1ccccc1)NC(=O)[C@H](CC(N)=O)NC(=O)[C@H](C)NC(=O)[C@H](CC(C)C)NC(=O)[C@H](CCCNC(=N)N)NC(=O)[C@H](CCC(N)=O)NC(=O)[C@@H](NC(=O)[C@H](C)NC(=O)[C@@H]1CSSC[C@H](NC(=O)[C@H](CCCNC(=N)N)NC(=O)[C@H](CCCCN)NC(=O)[C@H](CCC(=O)O)NC(=O)CCCCCCCCCCCCCCCCCCC(=O)O)C(=O)N[C@@H](CC(N)=O)C(=O)N[C@@H]([C@@H](C)O)C(=O)N[C@@H](C)C(=O)N[C@@H]([C@@H](C)O)C(=O)N1)[C@@H](C)O)C(C)C)C(=O)N[C@@H](CC(C)C)C(=O)N1CCC[C@H]1C(=O)N1CCC[C@H]1C(=O)N[C@H](C(=O)N[C@@H](CC(N)=O)C(=O)N[C@H](C(=O)NCC(=O)N[C@@H](CO)C(=O)N[C@@H](CC(N)=O)C(=O)N[C@H](C(=O)N[C@@H](Cc1ccc(O)cc1)C(N)=O)[C@@H](C)O)C(C)C)[C@@H](C)O [Example 51, N-alpha-(19-carboxynonadecanoyl)-Glu-Lys-[Arg1]-pramlintide (1-37)] ({C20 diacid}-EKRCNTATCATQRLANFLVHSSNNFGPILPPTNVGSNTY-NH2; disulfide 4-9; C-terminus assumed) | 0.07 nM | – |
| CC[C@H](C)[C@H](NC(=O)[C@@H]1CCCN1C(=O)CNC(=O)[C@H](Cc1ccccc1)NC(=O)[C@H](CC(N)=O)NC(=O)[C@H](CC(N)=O)NC(=O)[C@H](CO)NC(=O)[C@H](CO)NC(=O)[C@H](Cc1c[nH]cn1)NC(=O)[C@H](CCCCNC(=O)COCCOCCNC(=O)COCCOCCNC(=O)CCCCCCCCCCCCCCCCCCC(=O)O)NC(=O)[C@H](CC(C)C)NC(=O)[C@H](Cc1ccccc1)NC(=O)[C@H](CC(N)=O)NC(=O)[C@H](C)NC(=O)[C@H](CC(C)C)NC(=O)[C@H](CCCNC(=N)N)NC(=O)[C@H](CCC(N)=O)NC(=O)[C@@H](NC(=O)[C@H](C)NC(=O)[C@@H]1CSSC[C@H](NC(=O)[C@@H](N)CCCCN)C(=O)N[C@@H](CC(N)=O)C(=O)N[C@@H]([C@@H](C)O)C(=O)N[C@@H](C)C(=O)N[C@@H]([C@@H](C)O)C(=O)N1)[C@@H](C)O)C(=O)N[C@@H](CC(C)C)C(=O)N1CCC[C@H]1C(=O)N1CCC[C@H]1C(=O)N[C@H](C(=O)N[C@@H](CC(N)=O)C(=O)N[C@H](C(=O)NCC(=O)N[C@@H](CO)C(=O)N[C@@H](CC(N)=O)C(=O)N[C@H](C(=O)N[C@@H](Cc1ccc(O)cc1)C(N)=O)[C@@H](C)O)C(C)C)[C@@H](C)O [Example 8, N-epsilon17-(2-{2-[2-(2-{2-[2-(19-carboxynonadecanoylamino)ethoxy]ethoxy}acetylamino)ethoxy]ethoxy}acetyl)-[Lys17]-pramlintide (1-37)] (H-KCNTATCATQRLANFLK([AEEA-AEEA-C20 diacid])HSSNNFGPILPPTNVGSNTY-NH2; disulfide 2-7; N-terminus assumed) | – | 0.1 nM |
